From US12059420B2 (BRISTOL-MYERS SQUIBB COMPANY, priority 2018, dated 2024) come the findings set out here.

Where a name gives a salt, the structure may show the parent alone.

T1 sequence (P14902 whole entry): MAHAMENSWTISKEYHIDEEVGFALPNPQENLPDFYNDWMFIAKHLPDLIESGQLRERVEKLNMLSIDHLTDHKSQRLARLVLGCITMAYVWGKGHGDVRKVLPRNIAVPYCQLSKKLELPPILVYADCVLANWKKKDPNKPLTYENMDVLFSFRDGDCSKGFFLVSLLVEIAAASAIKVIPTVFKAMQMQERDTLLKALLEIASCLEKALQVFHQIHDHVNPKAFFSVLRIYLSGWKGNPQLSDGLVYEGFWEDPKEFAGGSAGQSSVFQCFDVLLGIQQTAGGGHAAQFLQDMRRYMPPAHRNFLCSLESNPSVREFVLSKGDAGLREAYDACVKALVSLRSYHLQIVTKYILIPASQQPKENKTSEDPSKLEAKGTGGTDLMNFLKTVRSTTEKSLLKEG

The test concerns the target T1, human IDO1 (Homo sapiens, UniProt P14902).
T1 construct: expressed in transfected cells
Description: IDO inhibition assay in HEK293 cells stably expressing human IDO1 (kynurenine production, Ehrlich reagent, absorbance 490 nm). The format is cell-based. Conditions: 20 hours incubation with compound, 500 nM reference standard = 100% inhibition, read-out: IDO1 HEK Human IC50. An outline of the steps:
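Kynurenine output of stably IDO1-transfected HEK293 cells was measured by absorbance at 490 nm after mixing supernatant with 0.2% Ehrlich reagent, following TCA stop (0.2% final, 50° C., 30 min). Cells were incubated 20 hours with compound. Inhibition was scaled between DMSO and 500 nM reference standard.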
For the molecule `Cc1ccc(CC(=O)Nc2cc(-c3ccccc3-c3nnn[nH]3)nc(N(Cc3ccc(F)cc3)CC(C)C)c2)cc1` [Example 90, N-(2-(2-(1H-tetrazol-5-yl)phenyl)-6-((4-fluorobenzyl)(isobutyl)amino)pyridin-4-yl)-2-(p-tolyl)acetamide, TFA], the 50% inhibitory concentration (IC50) (as a rule, the concentration at which inhibition is half-maximal) turned out to be 40.9 nM.

Take `Cc1ccc(CC(=O)Nc2cc(-c3ccccc3-c3nnn[nH]3)nc(N(Cc3ncccn3)CC(C)C)n2)cc1` [Example 92, N-(6-(2-(1H-tetrazol-5-yl)phenyl)-2-(isobutyl(pyrimidin-2-ylmethyl)amino)pyrimidin-4-yl)-2-(p-tolyl)acetamide]: the IC50 was determined as 146 nM.

As for `Cc1ccc(NC(=O)Nc2cc(-c3ccccc3-c3nnn[nH]3)nc(N3CCc4ccccc4C3)n2)cc1` [Example 93, 1-(6-(2-(1H-tetrazol-5-yl)phenyl)-2-(3,4-dihydroisoquinolin-2(1H)-yl)pyrimidin-4-yl)-3-(p-tolyl)urea], the concentration for half-maximal inhibition (IC50) is 3170 nM.

Consider `Cc1ccc(CC(=O)Nc2cc(-c3ccccc3-c3nnn[nH]3)nc(N3CCc4ccccc4C3)n2)cc1` [Example 94, N-(6-(2-(1H-tetrazol-5-yl)phenyl)-2-(3,4-dihydroisoquinolin-2(1H)-yl)pyrimidin-4-yl)-2-(p-tolyl)acetamide], for which the 50% inhibitory concentration (IC50) stood at 260 nM.

With `CC(C)c1ccc(CC(=O)Nc2cc(-c3ccccc3-c3nnn[nH]3)nc(N3CCc4ccccc4C3)n2)cc1` [Example 95, N-(6-(2-(1H-tetrazol-5-yl)phenyl)-2-(3,4-dihydroisoquinolin-2(1H)-yl)pyrimidin-4-yl)-2-(4-isopropylphenyl)acetamide], the IC50 was 1390 nM.

On to `Cc1ccc(CC(=O)Nc2cc(-c3ccccc3-c3nnn[nH]3)nc(N3CCN(Cc4ccccc4)C(=O)C3)n2)cc1` [Example 97, N-(6-(2-(1H-tetrazol-5-yl)phenyl)-2-(4-benzyl-3-oxopiperazin-1-yl)pyrimidin-4-yl)-2-(p-tolyl)acetamide], for which the IC50 is 1150 nM.

For `Cc1ccc(NC(=O)Nc2cc(-c3ccccc3-c3nnn[nH]3)nc(N3C[C@@H]4C[C@H]3CN4Cc3ccccc3)n2)cc1` [Example 98, 1-(6-(2-(1H-tetrazol-5-yl)phenyl)-2-((1 S,4S)-5-benzyl-2,5-diazabicyclo [2.2.1]heptan-2-yl)pyrimidin-4-yl)-3-(p-tolyl)urea], the IC50 was 846 nM.

For `CCN(CCC(F)(F)F)c1nc(NC(=O)Nc2ccc(C)cc2)cc(-c2ccccc2-c2nnn[nH]2)n1` [Example 99, 1-(6-(2-(1H-tetrazol-5-yl)phenyl)-2-(ethyl(3,3,3-trifluoropropyl)amino)pyrimidin-4-yl)-3-(p-tolyl)urea], the IC50 turned out to be 3660 nM.

As for `CCN(CCC(F)(F)F)c1nc(NC(=O)Cc2ccc(C)cc2)cc(-c2ccccc2-c2nnn[nH]2)n1` [Example 100, N-(6-(2-(1H-tetrazol-5-yl)phenyl)-2-(ethyl(3,3,3-trifluoropropyl)amino)pyrimidin-4-yl)-2-(p-tolyl)acetamide], the IC50 came to 127 nM.

Take `CCN(CCC(F)(F)F)c1cc(NC(=O)Cc2ccc(C)cc2)cc(-c2ccccc2-c2nnn[nH]2)n1` [Example 101, N-(2-(2-(1H-tetrazol-5-yl)phenyl)-6-(ethyl(3,3,3-trifluoropropyl)amino)pyridin-4-yl)-2-(p-tolyl)acetamide]: the IC50 was found to be 514 nM.

As for `CC(C)CN(Cc1ccccc1)c1nc(Nc2nc3ccccc3o2)cc(-c2ccccc2-c2nnn[nH]2)n1` [Example 102, 6-(2-(1H-tetrazol-5-yl)phenyl)-N4-(benzo [d]oxazol-2-yl)-N2-benzyl-N2-isobutylpyrimidine-2,4-diamine], the IC50 was 8.6 nM.

Turning to `CCCN(c1cc(NC(=O)Nc2ccc(C)cc2)cc(-c2ccccc2-c2nnn[nH]2)n1)C1CCOCC1` [Example 109, 1-(2-(2-(1H-tetrazol-5-yl)phenyl)-6-(propyl(tetrahydro-2H-pyran-4-yl)amino)pyridin-4-yl)-3-(p-tolyl)urea], the concentration for half-maximal inhibition (IC50) was 4120 nM.

For `COCCN(c1cc(NC(=O)Nc2ccc(F)cc2)cc(-c2ccccc2-c2nnn[nH]2)n1)C1CCC(F)(F)CC1` [Example 114, 1-(2-(2-(1H-tetrazol-5-yl)phenyl)-6-((4,4-difluorocyclohexyl)(2-methoxyethyl)amino)pyridin-4-yl)-3-(4-fluorophenyl)urea], the IC50 came to 6000 nM.

In the case of `CCCN(c1cc(NC(=O)Nc2ccc(C)cc2)cc(-c2ccccc2-c2nnn[nH]2)n1)C1CCC(C)(C)CC1` [Example 119, 1-(2-(2-(1H-tetrazol-5-yl)phenyl)-6-((4,4-dimethylcyclohexyl) (propyl)amino)pyridin-4-yl)-3-(p-tolyl)urea], the half-maximal inhibitory concentration (IC50) came to 2010 nM.

Regarding `Cc1ccc(CC(=O)Nc2cc(-c3ccccc3-c3nnn[nH]3)nc(N3CC(C)OC(C)C3)c2)cc1` (centres unmarked) [Example 125, N-(2-(2-(1H-tetrazol-5-yl)phenyl)-6-(2,6-dimethylmorpholino)pyridin-4-yl)-2-(p-tolyl)acetamide], the IC50 came to 1110 nM.

Consider `Cc1ccc(CC(=O)Nc2cc(-c3ccccc3-c3nnn[nH]3)nc(N3CCCC(C)C3)c2)cc1` (centres unmarked) [Example 126, N-(2-(2-(1H-tetrazol-5-yl)phenyl)-6-(3-methylpiperidin-1-yl)pyridin-4-yl)-2-(p-tolyl)acetamide], for which the half-inhibitory concentration (IC50) was 2000 nM.

On to `Cc1ccc(CC(=O)Nc2cc(-c3ccccc3-c3nnn[nH]3)nc(N3CCCCCC3)c2)cc1` [Example 127, N-(2-(2-(1H-tetrazol-5-yl)phenyl)-6-(azepan-1-yl)pyridin-4-yl)-2-(p-tolyl)acetamide], for which the half-inhibitory concentration (IC50) was 1050 nM.

Regarding `Cc1ccc(CC(=O)Nc2cc(-c3ccccc3-c3nnn[nH]3)nc(N3CCCC3C)c2)cc1` (centres unmarked) [Example 128, N-(2-(2-(1H-tetrazol-5-yl)phenyl)-6-(2-methylpyrrolidin-1-yl)pyridin-4-yl)-2-(p-tolyl)acetamide], the half-inhibitory concentration (IC50) came out at 1800 nM.

As to `COc1ccccc1N1CCN(c2cc(NC(=O)Cc3ccc(C)cc3)cc(-c3ccccc3-c3nnn[nH]3)n2)CC1` [Example 129, N-(2-(2-(1H-tetrazol-5-yl)phenyl)-6-(4-(2-methoxyphenyl)piperazin-1-yl)pyridin-4-yl)-2-(p-tolyl)acetamide], the half-inhibitory concentration (IC50) came to 1250 nM.

Regarding `Cc1ccc(CC(=O)Nc2cc(-c3ccccc3-c3nnn[nH]3)nc(N3CCCC3)c2)cc1` [Example 131, N-(2-(2-(1H-tetrazol-5-yl)phenyl)-6-(pyrrolidin-1-yl)pyridin-4-yl)-2-(p-tolyl)acetamide], the concentration for half-maximal inhibition (IC50) turned out to be 1600 nM.

Turning to `Cc1ccc(CC(=O)Nc2cc(-c3ccccc3-c3nnn[nH]3)nc(N3CCc4ccccc4C3)c2)cc1` [Example 132, N-(2-(2-(1H-tetrazol-5-yl)phenyl)-6-(3,4-dihydroisoquinolin-2(1H)-yl)pyridin-4-yl)-2-(p-tolyl)acetamide], the 50% inhibitory concentration (IC50) amounted to 520 nM.

On to `Cc1ccc(CC(=O)Nc2cc(-c3ccccc3-c3nnn[nH]3)nc(N3CCCC(C)(C)C3)c2)cc1` [Example 135, N-(2-(2-(1H-tetrazol-5-yl)phenyl)-6-(3,3-dimethylpiperidin-1-yl)pyridin-4-yl)-2-(p-tolyl)acetamide], for which the half-inhibitory concentration (IC50) amounted to 1240 nM.

Turning to `Cc1cncc(Nc2cc(-c3ccccc3-c3nnn[nH]3)nc(N(Cc3ccccc3)CC(C)C)c2)n1` [Example 136, 6-(2-(1H-tetrazol-5-yl)phenyl)-N2-benzyl-N2-isobutyl-N4-(6-methylpyrazin-2-yl)pyridine-2,4-diamine], the half-maximal inhibitory concentration (IC50) amounted to 78 nM.

For `CC(C)CN(Cc1ccccc1)c1cc(Nc2cccc(CO)n2)cc(-c2ccccc2-c2nnn[nH]2)n1` [Example 137, (6-((2-(2-(1H-tetrazol-5-yl)phenyl)-6-(benzyl(isobutyl)amino)pyridin-4-yl)amino)pyridin-2-yl)methanol], the IC50 stood at 48.7 nM.

On to `CC(C)CN(Cc1ccccc1)c1cc(Nc2ccc3c(c2)OCO3)cc(-c2ccccc2-c2nnn[nH]2)n1` [Example 138, 6-(2-(1H-tetrazol-5-yl)phenyl)-N4-(benzo[d][1,3]dioxol-5-yl)-N2-benzyl-N2-isobutylpyridine-2,4-diamine], for which the half-maximal inhibitory concentration (IC50) stood at 12 nM.

Regarding `CC(C)CN(Cc1ccccc1)c1cc(Nc2ccncc2F)cc(-c2ccccc2-c2nnn[nH]2)n1` [Example 139, 6-(2-(1H-tetrazol-5-yl)phenyl)-N2-benzyl-N4-(3-fluoropyridin-4-yl)-N2-isobutylpyridine-2,4-diamine], the IC50 was determined as 23.4 nM.

For the molecule `Cc1nccc(Nc2cc(-c3ccccc3-c3nnn[nH]3)nc(N(Cc3ccccc3)CC(C)C)c2)n1` [Example 140, 6-(2-(1H-tetrazol-5-yl)phenyl)-N2-benzyl-N2-isobutyl-N4-(2-methylpyrimidin-4-yl)pyridine-2,4-diamine], the half-maximal inhibitory concentration (IC50) worked out at 142 nM.

Regarding `CC(C)CN(Cc1ccccc1)c1cc(Nc2ncccn2)cc(-c2ccccc2-c2nnn[nH]2)n1` [Example 141, 6-(2-(1H-tetrazol-5-yl)phenyl)-N2-benzyl-N2-isobutyl-N4-(pyrimidin-2-yl)pyridine-2,4-diamine], the concentration for half-maximal inhibition (IC50) came to 39.6 nM.

As to `Cc1ccc(Nc2cc(-c3ccccc3-c3nnn[nH]3)nc(N(Cc3ccccc3)CC(C)C)c2)nc1` [Example 142, 6-(2-(1H-tetrazol-5-yl)phenyl)-N2-benzyl-N2-isobutyl-N4-(5-methylpyridin-2-yl)pyridine-2,4-diamine], the IC50 is 36.8 nM.

Regarding `CC(C)CN(Cc1ccccc1)c1cc(Nc2ccc(C(N)=O)cc2)cc(-c2ccccc2-c2nnn[nH]2)n1` [Example 144, 4-((2-(2-(1H-tetrazol-5-yl)phenyl)-6-(benzyl(isobutyl)amino)pyridin-4-yl)amino)benzamide], the 50% inhibitory concentration (IC50) was determined as 665 nM.

In the case of `Cc1ccnc(Nc2cc(-c3ccccc3-c3nnn[nH]3)nc(N(Cc3ccccc3)CC(C)C)c2)n1` [Example 145, 6-(2-(1H-tetrazol-5-yl)phenyl)-N2-benzyl-N2-isobutyl-N4-(4-methylpyrimidin-2-yl)pyridine-2,4-diamine], the IC50 turned out to be 73.6 nM.

With `Cc1ccc(Nc2cc(-c3ccccc3-c3nnn[nH]3)nc(N(Cc3ccccc3)CC(C)C)c2)c(F)c1` [Example 147, 6-(2-(1H-tetrazol-5-yl)phenyl)-N2-benzyl-N4-(2-fluoro-4-methylphenyl)-N2-isobutylpyridine-2,4-diamine], the IC50 amounted to 7.3 nM.
